{
  "source": "patent US20230023935A1",
  "about": "“USE OF MASITINIB FOR THE TREATMENT OF EOSINOPHILIC ASTHMA” (AB SCIENCE, priority 2019, published 2023)",
  "system": "subjects with severe persistent asthma treated with oral corticosteroids",
  "experiment": "Phase 3 study AB07015: masitinib 6 mg/kg/day versus placebo, severe asthma exacerbations by baseline blood eosinophil cohort",
  "type": "in vivo, human",
  "conditions": "for Rate ratio (Estimate) for asthma exacerbations: Poisson regression",
  "experimental": "A prospective, multicenter, randomized, double-blind, placebo-controlled, 2-parallel groups, phase 3 study was carried out to compare the efficacy and the safety of masitinib at 6 mg/kg/day versus placebo in the treatment of subjects with severe persistent asthma treated with oral corticosteroids. Said clinical trial (reference AB07015) is registered under the EudraCT number: 2010-020803-63 and under the ClinicalTrials.gov identifier: NCT01449162. Patients were randomized in two groups with a masitinib to placebo randomization ratio of 2:1, respectively: • Group 1: patients receiving masitinib at 6 mg/kg/day; • Group 2: patients receiving placebo. […] According to the statistical analysis plan of study AB07015 (version 1.0 dated 18 Oct. 2019), the overall assessable population was defined as: ‘all patients in full analysis set (FAS) with severe asthma already treated with oral corticosteroids at a minimal daily dose of greater than 5 mg prednisone or equivalent for at least 3 months prior to screening.’ Subgroup analyses were performed with cohort categorization of severe asthma patients according to eosinophil blood count at baseline. The primary efficacy endpoint was defined as the severe asthma exacerbation rate adjusted on the available person-time (time to end of treatment) on full exposure (main period+extension/weaning period). The rate of severe asthma exacerbations was analyzed by applying a Poisson regression (log-link function and Poisson distribution) model. Because eosinophilic inflammation is correlated with asthma severity, it was of interest to perform subgroup analyses according to blood eosinophil levels. Table 2 below presents the results regarding masitinib treatment effect with respect to placebo (rate ratio for asthma exacerbations requiring steroid therapy) in various blood eosinophil level-defined cohorts, and their complement cohorts (according to the primary efficacy analysis population). The rate of asthma exacerbations is analyzed using Poisson regression with treatment group (masitinib, placebo) as the primary variable (covariate) of interest.",
  "key": {"[1]": {"conditions": "masitinib 6 mg/kg/day oral, blood eosinophils equal to or higher than 150 cells/μL (M: 181)"}, "[2]": {"conditions": "masitinib 6 mg/kg/day oral, blood eosinophils equal to or lower than 300 cells/μL (M: 145)"}, "[3]": {"conditions": "masitinib 6 mg/kg/day oral, blood eosinophils higher than 300 cells/μL (M: 95)"}, "[4]": {"conditions": "masitinib 6 mg/kg/day oral, blood eosinophils lower than 150 cells/μL (M: 59)"}, "[5]": {"conditions": "masitinib 6 mg/kg/day oral, blood eosinophils ranging from 150 to 300 cells/μL (M: 86)"}, "[6]": {"conditions": "masitinib vs placebo, blood eosinophils equal to or higher than 150 cells/μL"}, "[7]": {"conditions": "masitinib vs placebo, blood eosinophils equal to or lower than 300 cells/μL"}, "[8]": {"conditions": "masitinib vs placebo, blood eosinophils higher than 300 cells/μL"}, "[9]": {"conditions": "masitinib vs placebo, blood eosinophils lower than 150 cells/μL"}, "[10]": {"conditions": "masitinib vs placebo, blood eosinophils ranging from 150 to 300 cells/μL"}, "[11]": {"conditions": "masitinib vs placebo, blood eosinophils equal to or higher than 300 cells/μL"}},
  "data": [
    {"smiles": "Cc1ccc(NC(=O)c2ccc(CN3CCN(C)CC3)cc2)cc1Nc1nc(-c2cccnc2)cs1", "note": "[Masitinib, 4-(4-methylpiperazin-1-ylmethyl)-N-[4-methyl-3-(4-pyridin-3ylthiazol-2-ylamino)phenyl]benzamide]", "values": [
      {"measurement": "Yearly Exacerbation Rate", "setting": "masitinib 6 mg/kg/day oral, blood eosinophils equal to or higher than 150 cells/μL", "result": "0.34 severe exacerbations per year"},
      {"measurement": "Number of Severe Exacerbations", "setting": "[1]", "result": 67},
      {"measurement": "n: number of subjects who experienced severe exacerbation", "setting": "[1]", "result": "(n = 39)"},
      {"measurement": "exacerbation rate", "setting": "masitinib 6 mg/kg/day oral, blood eosinophils equal to or higher than 300 cells/μL (95 patients)", "result": "0.29 severe exacerbations per year"},
      {"measurement": "Yearly Exacerbation Rate", "setting": "masitinib 6 mg/kg/day oral, blood eosinophils equal to or lower than 300 cells/μL", "result": 0.37},
      {"measurement": "Number of Severe Exacerbations", "setting": "[2]", "result": 65},
      {"measurement": "n: number of subjects who experienced severe exacerbation", "setting": "[2]", "result": "(n = 35)"},
      {"measurement": "Yearly Exacerbation Rate", "setting": "masitinib 6 mg/kg/day oral, blood eosinophils higher than 300 cells/μL", "result": 0.29},
      {"measurement": "Number of Severe Exacerbations", "setting": "[3]", "result": 29},
      {"measurement": "n: number of subjects who experienced severe exacerbation", "setting": "[3]", "result": "(n = 19)"},
      {"measurement": "Yearly Exacerbation Rate", "setting": "masitinib 6 mg/kg/day oral, blood eosinophils lower than 150 cells/μL", "result": "0.36 severe exacerbations per year"},
      {"measurement": "Number of Severe Exacerbations", "setting": "[4]", "result": 27},
      {"measurement": "n: number of subjects who experienced severe exacerbation", "setting": "[4]", "result": "(n = 15)"},
      {"measurement": "Yearly Exacerbation Rate", "setting": "masitinib 6 mg/kg/day oral, blood eosinophils ranging from 150 to 300 cells/μL", "result": "0.38 severe exacerbations per year"},
      {"measurement": "Number of Severe Exacerbations", "setting": "[5]", "result": 38},
      {"measurement": "n: number of subjects who experienced severe exacerbation", "setting": "[5]", "result": "(n = 20)"},
      {"measurement": "Rate ratio (Estimate) for asthma exacerbations", "setting": "[6]", "result": 0.66},
      {"measurement": "Rate ratio (Estimate) for asthma exacerbations", "setting": "[7]", "result": 0.81},
      {"measurement": "Rate ratio (Estimate) for asthma exacerbations", "setting": "[8]", "result": 0.59},
      {"measurement": "Rate ratio (Estimate) for asthma exacerbations", "setting": "[9]", "result": 0.97},
      {"measurement": "Rate ratio (Estimate) for asthma exacerbations", "setting": "[10]", "result": 0.72},
      {"measurement": "Reduction in Severe Exacerbation", "setting": "[6]", "result": 34, "unit": "%"},
      {"measurement": "Reduction in Severe Exacerbation", "setting": "masitinib vs placebo, blood eosinophils equal to or higher than 150 cells/μL, listed as masitinib", "result": 33, "unit": "%"},
      {"measurement": "rate ratio for asthma exacerbations", "setting": "[11]", "result": 0.59},
      {"measurement": "reduction (improvement) in severe exacerbation", "setting": "[11]", "result": 41, "unit": "%"},
      {"measurement": "Reduction in Severe Exacerbation", "setting": "[7]", "result": 19, "unit": "%"},
      {"measurement": "Reduction in Severe Exacerbation", "setting": "[8]", "result": 41, "unit": "%"},
      {"measurement": "Reduction in Severe Exacerbation", "setting": "[9]", "result": 3, "unit": "%"},
      {"measurement": "difference in exacerbation rate versus placebo", "setting": "[9]", "result": "no discernable difference"},
      {"measurement": "Reduction in Severe Exacerbation", "setting": "masitinib vs placebo, blood eosinophils lower than 150 cells/μL, listed as masitinib", "result": 3, "unit": "%"},
      {"measurement": "Reduction in Severe Exacerbation", "setting": "[10]", "result": 28, "unit": "%"},
      {"measurement": "Reduction in Severe Exacerbation", "setting": "masitinib vs placebo, blood eosinophils ranging from 150 to 300 cells/μL, listed as masitinib", "result": 28, "unit": "%"}
    ]}
  ]
}
